Reference: US20040204596A1, “Method for the preparation of unsaturated hydroxy fatty acids and their esters, their use in pharmaceutical and/or cosmetic preparations” (Pierre Potier, priority 2001, published 2004)
“And” between values parts separate entries of the source, which are not always exact repeats. Identical values can stand only once.

Experiments:
[1] = test system: adipose tissue explants; assay: Lipolytic activity on adipose tissue explants ex vivo (lipids released in culture medium, TLC; histology); assay type: cell-based
Method: DHA was incorporated in the culture medium at a final concentration of 0.25 and 0.5%. After 8 days of contact, the activity was evaluated by quantitative determination of the lipids distributed in the culture medium.
Twelve adipose tissue explants (plasty P202-AB31) were prepared and placed in survival state in BEM medium (BIO-EC's Explants Medium). The explants were distributed in 4 lots of 3 explants:
one positive control lot (caffeine at 0.1%),
two product lots (DHA at 0.25 and 0.5%).
On Day 0, the explants were placed in survival state in 2 ml of culture medium, in which the product to be tested was incorporated.
This treatment was renewed on Day 2, Day 4 and Day 6.
On Day 2, Day 4, Day 6 and Day 8, the culture medium was collected. For each explant, the media collected on Day 2, Day 4, Day 6 and Day 8 were grouped together in the same tube and preserved at −20° C. for quantitative determination of the lipids.
On Day 8, the adipose tissue explants were collected and fixed in ordinary Bouin's fixative for the histological study.
The fixed adipose tissue explants were dehydrated, impregnated with paraffin, but in block form, sectioned and stained with Masson's trichrome.
After extraction of the culture medium, the lipids were separated and quantitatively determined by TLC.
The viability and morphology of the adipocytes was monitored by the histologic study.
The lipolytic activity was evaluated by analysis of the proportions of monoglycerides, diglycerides, triglycerides and free fatty acids.
The results are expressed in mass (μg) of each category of lipid released in the culture medium during the 8 days of treatment.
Table 5 below represents the statistical analysis using Student's test of the results of the quantitative determination of the fatty acids released in the culture medium during the 8 days of treatment.

[2] = test system: collagenase; assay: Anticollagenase activity on frozen sections of human skin (picrosirius staining); assay type: biochemical; parameters: key to Alteration of the collagen structure: 0: An absence of alteration of the collagen structure; 1: somewhat; 2: markedly to very strongly altered collagen structure; details: for Alteration of the collagen structure: frozen human skin sections, 2 hours at 37° C.; for inhibition of the activity of collagenase: collagenase 30 U/ml
Method: This example was performed with different solutions at concentrations of 1 and 2% of active principles in comparison with the excipient alone, buffer controls and collagenase. The active principles used were DHA, the 2-dimethylamino ethyl ester of trans-10-hydroxy-2-decenoic acid (ML40) and the glycerol ester of trans-10-hydroxy-2-decenoic acid (GM).
Frozen 5-μm-thick sections from a mammary plasty of a person were placed on histological slides (4 sections per slide). Each solution was tested on one slide.
The sections were covered with the solutions to be tested then incubated for 2 hours at 37° C. in a humid chamber. The solutions were eliminated by repeated rinsings and the sections were stained with picrosirius. Microscopic examination was performed with the 2.5 objective and paper photographs were taken with Kodak Gold 100 ASA film.
Table 2 summarizes the results of alteration of the collagen structure as a function of the tested solution. An absence of alteration of the collagen structure is indicated by 0 while a somewhat or markedly to very strongly altered collagen structure is indicated, respectively, by 1 or 2.

[3] = test system: cutaneous 5-alpha-reductase; assay: Inhibition of cutaneous 5-alpha-reductase activity; assay type: biochemical
Text: DHA is capable of inhibiting cutaneous 5-alpha-reductase, the enzyme responsible for the production of di-hydro-testosterone. Treatment with 0.1% of DHA and treatment with 0.5% of DHA reduced by about 70% and about 90%, respectively, the 5-alpha-reductase activity compared to an untreated control. This inhibition results in a considerable reduction of the sebum level.

[4] = test system: collagenase; assay: Anticollagenase activity on human skin explants maintained in survival state; assay type: cell-based
Method: The study was performed on a 5% GM product in comparison with the excipient (hydrocerin), a positive control and a control in the presence of collagenase at 100 U/ml.
Hydrocerin was used as the excipient for the preparation of the product to be applied. This study was performed twice. […] In the second study, the study time was extended and the collection of the explants was performed on Day 2 and on Day 4.
Human skin explants prepared and distributed into 16 lots of three explants each were placed in survival state according to Table 3.
The product was applied on Day 0 and on Day 2 at the rate of 20 mg per explant and collagenase was incorporated into the culture medium of the […].
Three explants of each lot were collected on Day 2 and on Day 4, fixed in ordinary Bouin's fixative and subjected to histological processing.
The histological study comprised:
impregnation in paraffin,
staining with Sirius red F3B,
calorimetric measurements of the collagen by image analysis,
comparison with photographs.
For this reason, the survival, the contact and the application were extended to Day 4. The collagenase action was monitored in two ways: intensity of the coloration of the collagen network and thickness of the dermal structure. With this study, penetration of the active principle and its inhibitory activity were correlated in relation to collagenase.

[5] = caffeine 0.1%, 8 days of treatment
[6] = 1% active principle + collagenase 30 U/ml
[7] = 1% active principle, no collagenase
[8] = 2% active principle + collagenase 30 U/ml
[9] = 2% active principle, no collagenase
[10] = DHA at 0.25%, 8 days of treatment
[11] = DHA at 0.5%, 8 days of treatment
[12] = product containing 5% of GM in hydrocerin, 20 mg per explant on Day 0 and Day 2, collagenase 100 U/ml, Day 4

With `Cn1c(=O)c2c(ncn2C)n(C)c1=O` [Caffeine, caffeine, reference compound] the “% augmentation/Control of fatty acids released” value (“% augmentation/Control” for short) [1, 5] was 2780.6%, the “Diglycerides released in the culture medium, Mean” value (from here on “Diglycerides released”) [1, 5] was 0.02 µg and the “Fatty acids released in the culture medium, Mean” value (from here on “Fatty acids released … Mean”) [1, 5] was 27.99 µg. For the same molecule, the “Monoglycerides released in the culture medium, Mean” value (from here on “Monoglycerides released”) [1, 5] was 1.22 µg, the “Triglycerides released in the culture medium, Mean” value (“Triglycerides released” below) [1, 5] was 197.34 µg and the “fatty acids released in the culture medium, individual explants” value (from here on “fatty acids released … individual explants”) [1, 5] was 33.89 µg and 24.10 µg and 25.97 µg. For the same molecule, the “% augmentation/Control” value ([1]; caffeine 0.1%, 8 days of treatment, listed as caffeine) was 2780% and the “augmentation factor of fatty acids released compared to the untreated control” value ([1]; caffeine at 0.1%, 8 days of treatment) was “about 29”.

For `O=C(O)/C=C/CCCCCCCO` [DHA, trans-10-hydroxy-2-decenoic acid], the “Alteration of the collagen structure” value [2, 6] was 0, the “Alteration of the collagen structure” value [2, 7] was 0 and the “inhibition of the activity of collagenase” value (“inhibition” for short) ([2]; 1%) was “inhibited completely”. The “Alteration of the collagen structure” value [2, 8] was 0, the “Alteration of the collagen structure” value [2, 9] was 0 and the “inhibition” value ([2]; 2%) was “inhibited completely”. For the same molecule, the “reduction of 5-alpha-reductase activity compared to an untreated control” value ([3]; treatment with 0.1% of DHA) was “about 70%”, the “reduction of 5-alpha-reductase activity compared to an untreated control” value ([3]; treatment with 0.5% of DHA) was “about 90%” and the “lipolytic activity (Student's test)” value ([1]; DHA applied at 0.25%) was “significant lipolytic activity”. The “lipolytic activity (Student's test)” value ([1]; DHA applied at 0.5%) was “significant lipolytic activity”, the “% augmentation/Control” value [1, 10] was 1075% and 1075.6% and the “Diglycerides released” value [1, 10] was 0.00 µg. The “Fatty acids released … Mean” value [1, 10] was 11.42 µg, the “Monoglycerides released” value [1, 10] was 3.64 µg and the “Triglycerides released” value [1, 10] was 156.15 µg. For the same molecule, the “fatty acids released … individual explants” value [1, 10] was 9.95 µg and 11.67 µg and 12.66 µg, the “% augmentation/Control” value [1, 11] was 1087% and 1086.8% and the “Diglycerides released” value [1, 11] was 0.00 µg. The “Fatty acids released … Mean” value [1, 11] was 11.53 µg, the “Monoglycerides released” value [1, 11] was 7.06 µg and the “Triglycerides released” value [1, 11] was 202.56 µg. The “fatty acids released … individual explants” value [1, 11] was 12.81 µg and 11.64 µg and 10.14 µg and the “maximum effective dose (lipolytic effect)” value ([1]; adipose tissue explants, 8 days) was roughly 0.25%.

In the case of `O=C(/C=C/CCCCCCCO)OCC(O)CO` (stereo not drawn) [GM, glycerol ester of trans-10-hydroxy-2-decenoic acid], the “Alteration of the collagen structure” value [2, 6] was 2, the “Alteration of the collagen structure” value [2, 7] was 0 and the “Alteration of the collagen structure” value [2, 8] was 1. For the same molecule, the “Alteration of the collagen structure” value [2, 9] was 0, the “inhibition” value ([2]; 2%) was “only slightly inhibited” and the anticollagenase activity ([4]; 5% GM product, human skin explants, collagenase 100 U/ml) was “pronounced anticollagenase activity”. The “degradation of the collagen bundles” value [4, 12] was “very slightly degraded” and the “thickness of the dermis” value [4, 12] was “diminished slightly”.

With `CN(C)CCOC(=O)/C=C/CCCCCCCO` [ML40, 2-dimethylamino ethyl ester of trans-10-hydroxy-2-decenoic acid] the “Alteration of the collagen structure” value [2, 6] was 2, the “Alteration of the collagen structure” value [2, 7] was 0 and the “Alteration of the collagen structure” value [2, 8] was 1. The “Alteration of the collagen structure” value [2, 9] was 0 and the “inhibition” value ([2]; 2%) was “only slightly inhibited”.

With `c1cnc2c(c1)ccc1cccnc12` [phenanthroline, reference compound] the dermal structure ([4]; positive control + collagenase 100 U/ml, Day 4) was “the same as that of the controls without collagenase”.
